Results from patent publication US5208243A, “5-isoquinolinesulfonamides” (Adir et Compagnie, priority 1991, dated 1993).
Where a name gives a salt, the structure may show the parent alone.

What was measured:
rat aortas = assay: Contraction of rat aortas induced by potassium depolarization (hyperpotassium medium); design: species or system WISTAR rat; conditions: read-out: IC50 (concentration inhibiting by 50% the contraction of rat aortas induced by potassium depolarization)
Excerpt: The rings are linked to a STATHAM tension sensor (UC2-GOULD).

rabbit aorta [1] = assay: Contraction of rabbit aorta induced by noradrenaline in a normal physiological medium; design: species or system New Zealand rabbit; conditions: Oryctolagus cuniculus, noradrenaline 10^-6 M, read-out: IC50, noradrenaline stimulus
Description: (§1) Studies are carried out on rings, 3 mm in length, […] The vascular rings are immersed in a normal physiological solution or in a physiological solution lacking calcium (+0.2 mM of the chelating agent EGTA), which is thermostatically regulated at 37° C. and aerated with a 95% O2 +5% CO2 mixture. The rings are linked to a STATHAM tension sensor (UC2-GOULD). The optimal tension for each vessel is applied and a stabilization period of 90 min is observed for the preparations. a) Antivasoconstrictive activity of the compounds of the invention in a physiological medium.

rabbit mesenteric artery = assay: Contraction of rabbit mesenteric artery induced by electrical stimulation; design: species or system New Zealand rabbit; conditions: Oryctolagus cuniculus, normal physiological medium
Description: as §1

rabbit aorta [2] = assay: Contraction of rabbit aorta induced by endothelin in a normal physiological medium; design: species or system New Zealand rabbit; conditions: Oryctolagus cuniculus, read-out: IC50, endothelin stimulus
Description: as §1

rabbit aorta [3] = assay: Contraction of rabbit aorta induced by phorbol ester in a normal physiological medium; design: species or system New Zealand rabbit; conditions: Oryctolagus cuniculus, TPA 10^-5 M, read-out: IC50, phorbol ester stimulus
Description: as §1

rabbit aorta [4] = assay: Vascular contraction of rabbit aorta induced by PDGF; design: species or system New Zealand rabbit; conditions: Oryctolagus cuniculus, 10^-5 M, preincubated 15 minutes
Description: as §1

pig coronary artery = assay: Vascular contraction of pig coronary artery induced by acetylcholine; conditions: Sus scrofa, 10^-5 M, preincubated 15 minutes
Description: Studies are carried out on rings, 3 mm in length, - or of coronary arteries from pigs anesthetized with nesdonal (8 mg/kg intravenously). The vascular rings are immersed in a normal physiological solution or in a physiological solution lacking calcium (+0.2 mM of the chelating agent EGTA), which is thermostatically regulated at 37° C. and aerated with a 95% O2 +5% CO2 mixture. The rings are linked to a STATHAM tension sensor (UC2-GOULD). The optimal tension for each vessel is applied and a stabilization period of 90 min is observed for the preparations. a) Antivasoconstrictive activity of the compounds of the invention in a physiological medium.

rabbit aortas = assay: Contraction of rabbit aortas induced by noradrenaline in a medium without calcium; design: species or system New Zealand rabbit; conditions: Oryctolagus cuniculus, 0.5 h; compound 10^-6 M, rabbit aorta, incubated 30 minutes
Description: (§2) Studies are carried out on rings, 3 mm in length, […] The vascular rings are immersed in a normal physiological solution or in a physiological solution lacking calcium (+0.2 mM of the chelating agent EGTA), which is thermostatically regulated at 37° C. and aerated with a 95% O2 +5% CO2 mixture. The rings are linked to a STATHAM tension sensor (UC2-GOULD). The optimal tension for each vessel is applied and a stabilization period of 90 min is observed for the preparations. b) Antivasoconstrictive activity of the compounds of the invention in a medium without calcium.

rabbit aorta [5] = assay: Contraction of rabbit aorta induced by angiotensin II in a medium without calcium; design: species or system New Zealand rabbit; conditions: Oryctolagus cuniculus, 10^-5 M, medium lacking calcium
Description: as §2

rabbit aorta [6] = assay: Contraction of rabbit aorta induced by endothelin in a medium without calcium; design: species or system New Zealand rabbit; conditions: Oryctolagus cuniculus, 10^-5 M, medium lacking calcium
Description: as §2

rabbit aorta [7] = assay: Contraction of rabbit aorta induced by phorbol ester in a medium without calcium; design: species or system New Zealand rabbit; conditions: Oryctolagus cuniculus, 10^-5 M, medium lacking calcium
Description: as §2

Rabbit iliac artery = assay: Contraction of rabbit iliac artery induced by caffeine in a medium without calcium; design: species or system New Zealand rabbit; conditions: Oryctolagus cuniculus, 10^-5 M, medium lacking calcium
Description: as §2

guinea pig left auricle [8] = assay: Ouabain intoxication of guinea pig left auricle; conditions: compound 10^-6 M
guinea pig left auricle [9] = assay: Veratridine intoxication of guinea pig left auricle; conditions: compound 10^-5 M
Description: a) Effect of the compounds of the invention on the intoxication of guinea pig left auricle.
The left auricles are removed from guinea pigs (350-450 g) anesthetized with sodium pentobarbital (30 mg/kg). The auricles are attached to a STATHAM tension sensor (UC2-GOULD) and the initial tension applied is 0.5 grams.
The auricles are electrically stimulated at 1 Hz by means of platinum electrodes. The intoxications are produced either by the addition of ouabain (10^-6 M) or by the addition of veratridine (10^-5 M). The test compounds are added 15 minutes before adding the toxic agent.

isolated heart = assay: Isolated heart subjected to an ischemia-reperfusion sequence; design: species or system WISTAR rat; conditions: Rattus norvegicus, concentration of 810^-7 M (so in the source)
Description: b) Protective effect of the compounds of the invention on an isolated heart subjected to an ischemia-reperfusion sequence.
The heart is removed from WISTAR rats (325-375 g). The heart is rapidly perfused according to the technique of LANGENDORFF at a constant pressure of 101.310^2 Pa and electrically stimulated at 5 Hz.
The heart is subjected to a 30 min ischemia (produced by complete stoppage of the perfusion) followed by a 60 min reperfusion. The test compounds are incubated for 15 min before the ischemia.
Isovolumetric contractions are recorded by means of a polyethylene ballonet linked to a pressure sensor (P23-GOULD) introduced into the left ventricle and inflated so as to obtain a diastolic pressure of between 6.710^2 and 13.310^2 Pa.

[10] = test system: smooth muscle cells of the aorta; assay: Proliferation rate after endothelial denudation of the aorta (3H-thymidine incorporation); format: in vivo, WISTAR rat; conditions: 10 mg/kg orally, daily
Description: D/ Effect of the compounds of the invention on the proliferation rate after endothelial denudation. […] After pretreatment for 6 days (J6), denudation of the aortic endothelium of the animals is performed according to the following method: After anesthetizing the animal with methohexital (Brietal, 60 mg/kg intraperitoneally), an embolectomy probe (Fogarty 2F) is introduced into the aorta through the left carotid. Aortic deendothelialization is achieved by three successive passages of the probe. Three days after the endothelial denudation (J9), the rats are sacrificed and the aorta is removed, incubated in a physiological solution for 1 hour at 37° C., and then transferred into a ^3 H-thymidine-enriched Krebs- Henseleit solution (specific activity: […]) for 1 hour at 37° C. This is followed by a one-hour post-incubation in a Krebs-Henseleit solution lacking ^3 H-thymidine. After washing in a Tris-EDTA buffer, the proliferation rate is calculated from the incorporation of 3H-thymidine. [drawing 17]

For `CN(C1CCN(CCCCOc2ccc(F)cc2)CC1)S(=O)(=O)c1cccc2cnccc12` [Example 1, N-Methyl-N-{1-[4-(pfluorophenoxy)butyl]-4-piperidyl}-5-isoquinolinesulfonamide fumarate], the IC50 (rat aortas) was 850 nM, the IC50 (rabbit aorta [1]) was 1400 nM and the IC50 (rabbit mesenteric artery) was 400 nM. The IC50 (rabbit aorta [2]) was 8.1 µM, the IC50 (rabbit aorta [3]) was 300 µM and the inhibition at 10 µM (rabbit aorta [4]) was 20%. The inhibition at 10 µM (pig coronary artery) was 61%, the inhibition at 1 µM (rabbit aortas) was 61% and the inhibition at 10 µM (rabbit aorta [5]) was 40%. For the same compound, the inhibition at 10 µM (rabbit aorta [6]) was 42%, the inhibition at 10 µM (rabbit aorta [7]) was 66% and the inhibition at 10 µM (Rabbit iliac artery) was 30%. For the same compound, the “% contraction” value (guinea pig left auricle [8]; 10 min) was 192 ± 29%, the “Contracture (%)” value (guinea pig left auricle [8]; 15 min) was 0% and the “% contraction” value (guinea pig left auricle [8]; 30 min) was 187.5 ± 30%. The “Contracture (%)” value (guinea pig left auricle [8]; 30 min) was 1.9 ± 1.9%, the “% contraction” value (guinea pig left auricle [8]; 60 min) was 148.3 ± 33% and the “Contracture (%)” value (guinea pig left auricle [8]; 60 min) was 18 ± 7%. The “% contraction” value (guinea pig left auricle [9]; 5 min) was 158 ± 11%, the “% contraction” value (guinea pig left auricle [9]; 15 min) was 60.5 ± 13% and the “Contracture (%)” value (guinea pig left auricle [9]; 15 min) was 23.5 ± 6.2%. The “Contracture (%)” value (guinea pig left auricle [9]; 30 min) was 52.2 ± 4.7%, the “% contraction” value (guinea pig left auricle [9]; 60 min) was 20.5 ± 4.6% and the “Contracture (%)” value (guinea pig left auricle [9]; 60 min) was 60.7 ± 4.4%. For the same compound, the inhibition at 0.8 µM (isolated heart; 0.5 h, read-out: reduction of the contracture developed after 30 minutes of ischemia, relative to control) was 47%, the activation at 0.8 µM (isolated heart; 1 h, end of 60 minutes of reperfusion, read-out: improvement of the functional recuperation of the hearts relative to control) was 55% and the “reduction of the proliferation of smooth muscle cells” value [10] was 40%.
